From patent US20260034158A1, “METHODS OF TREATING CANCER OF THE CENTRAL NERVOUS SYSTEM COMPRISING 5-ETHYNYL-2'-DEOXYURIDINE” (The University of North Carolina at Chapel Hill, priority 2022, published 2026)

How the values were obtained:
[1] = system: nucleotide excision repair in HeLa cells; assay: In vivo excision assay with anti-BrdU antibody immunoprecipitation; assay type: cell-based, human; conditions: for excised oligomers (nominal 26-mer) precipitated by anti-BrdU antibodies: 10 μM thymidine analog, 24 h, no UV
Description: (§1) UV Irradiation and Thymidine analog treatment: HeLa cells were grown to ˜80% confluence, culture medium was removed, cells were washed twice with PBS, and then were placed under a GE germicidal lamp emitting primarily 254-nm UV light (1 J/m^2/sec) connected with a digital timer for 20sec (20 J/m^2 in total). Cells were collected after 1 hour repair. Thymidine analogs were dissolved in sterile PBS (BrdU, EdU, CldU) or DMSO (IdU, F-ara-EdU, AmdU), and then added to cell culture medium at final concentration of 10 μM for indicated times.
(§2) In vivo excision assay: For in vivo excision assay with BrdU antibody, low molecular DNAs isolated by Hirt procedure as previously described (ref 17) were subject to immunoprecipitation with anti-BrdU antibody. For in vivo excision assay with TFIIH antibody, cells were lysed in buffer A (25 mM HEPES at pH7.9, 100 mM KCl, 12 mM MgCl2, 0.5 mM EDTA, 2 mM DTT, 12.5% glycerol, 0.5% NP-40), and excised oligonucleotides complexed with TFIIH protein were immunoprecipitated with TFIIH antibody. Purified oligonucleotides from BrdU IP or TFIIH IP were 3′ end-labeled by terminal deoxynucleotidyl transferase (TdT), α-^32P-ATP with a standard 50 mer oligonucleotide as spike internal control. After phenol-chloroform extraction and ethanol precipitation, labeled DNAs were fractionated with 12% denaturing sequencing gels.

[2] = system: nucleotide excision repair in HeLa cells; assay: In vivo excision assay with TFIIH antibody immunoprecipitation; assay type: cell-based, human; conditions: for substrate for excision repair: when incorporated into the DNA of replicating cells, summary statement
Description: as §1, §2

[3] = system: HeLa cells; assay: Slot blot assay of thymidine analog incorporation into genomic DNA; assay type: cell-based, human; conditions: 10 μM thymidine analog, 24 h, anti-BrdU antibody
Description: Slot blot assay: HeLa cells were plated in 100 mm plates and treated with 10 μM thymidine analogs for 24 h. Genomic DNA was purified from cell pellets using QIAamp DNA mini kit (Qiagen, 51306). DNA concentrations were determined using a Qubit 3.0 fluorometer. 250 ng of each DNA was diluted with TE buffer (10 mM Tris-HCl pH8, 1 mM EDTA) to a total volume of 250 μL, then boiled at 90° C. for 10 min and cooled in ice water immediately. 250 μL cold ammonium acetate (2 M) was added to neutralize DNA, and then DNA samples were loaded onto nitrocellulose membranes using a slot blot apparatus. Membranes were transferred to a vacuum oven and baked for 1.5 h at 80° C., then blocked with 5% dried milk and incubated with either anti-BrdU antibody (1:1000) or anti-ssDNA antibody (1:5000) as loading control overnight at 4° C. After incubating with a horseradish peroxidase (HRP) labeled secondary antibody (1:10000) for 1 h, chemiluminescent signal was captured using a Bio-Rad ChemiDoc XRS imaging device.

[4] = system: NHF1 wild-type cells; assay: In vivo excision assay (anti-BrdU IP) in wild-type NHF1 cells; assay type: cell-based, human; conditions: wild type NHF1, 10 μM EdU, 24 h
Source text: (§3) Cell lines: NHF1 cells, telomerase-immortalized normal human fibroblast monolayers were obtained as described previously (ref 17), XPA-/-XPC-/-CSB-/- triple knock out NHF1 cells were generated using CRISPR Cas9 system with gRNAs (XPA: […] (SEQ ID NO:1); CSB: […] (SEQ ID NO:2); XPC: […] (SEQ ID NO:3)). The HeLa cell line was from the American Type Culture Collection (ATCC). NHF1 and HeLa cells were maintained in Dulbecco's modified Eagle's medium (DMEM) supplemented with 10% fetal bovine serum at 37° C. in a 5% CO2 humidified chamber.
as §2

[5] = system: XPA-/-XPC-/-CSB-/- NHF1 cells; assay: In vivo excision assay (anti-BrdU IP) in excision repair defective NHF1 cells; assay type: cell-based, human; conditions: XPA-/-XPC-/-CSB-/- mutant NHF1, 10 μM EdU, 24 h
Source text: as §3, §2

[6] = system: Chinese hamster ovary (CHO) AA8 cell free extract excision nuclease; assay: In vitro excision assay with mammalian cell-free extract; assay type: biochemical; conditions: 140bp duplex substrates, CHO AA8 CFE, three biological replicates
Description: In vitro excision assay: Radiolabeled 140-bp full length undamaged, (6-4) PP, and EdU damaged substrates were prepared, and in vitro excision assay with cell-free extract from Chinese hamster ovary (CHO) AA8 cells were carried out as previously described (ref 39). Briefly, Chinese hamster ovary (CHO) AA8 cell free extract (CFE) was prepared by the method of Manley (ref 42). Linear double-stranded DNA substrates (140bp in length) were prepared with centrally located (6-4) photoproduct or EdU as described previously (ref 43). The sequence of the centrally located 12-mers was […]; SEQ ID NO:4. For the (6-4) substrate, the (6-4) lesion was between T5 and T6. Single EdU was at T6 and, double EdU lesions were at T5 and T6. Unmodified 12mer and EdU containing 12mers were purchased from Integrated DNA Technologies.
The excision reaction with AA8 CFE (75 μg) was conducted with 20 fmol of 140bp substrates, 18 mM HEPES-KOH (pH 7.9), 24 mM KCl, 2 mM MgCl2, 4 mM ATP at 30° C. for 60 minutes as described (ref 35). After the excision reaction, the mixture was incubated with 0.34% SDS and 20 µg/ml Proteinase K at 55-60° C. for 15 minutes, then DNA was extracted with phenol:chloroform:isoamyl alcohol and precipitated with ethanol, resuspended in formamide/dye mixture, and separated with a 10% sequencing gel. Quantification of the signal intensities was done by using ImageJ.

[7] = target: Taq DNA polymerase (Thermus aquaticus, UniProt P19821); assay: PCR of EdU-substituted genomic DNA with Taq DNA polymerase; assay type: biochemical; conditions: genomic DNA of cells treated with EdU for 24 hrs, CSA gene (946bp), 30 cycles
Taq DNA polymerase, sequence (P19821 whole entry): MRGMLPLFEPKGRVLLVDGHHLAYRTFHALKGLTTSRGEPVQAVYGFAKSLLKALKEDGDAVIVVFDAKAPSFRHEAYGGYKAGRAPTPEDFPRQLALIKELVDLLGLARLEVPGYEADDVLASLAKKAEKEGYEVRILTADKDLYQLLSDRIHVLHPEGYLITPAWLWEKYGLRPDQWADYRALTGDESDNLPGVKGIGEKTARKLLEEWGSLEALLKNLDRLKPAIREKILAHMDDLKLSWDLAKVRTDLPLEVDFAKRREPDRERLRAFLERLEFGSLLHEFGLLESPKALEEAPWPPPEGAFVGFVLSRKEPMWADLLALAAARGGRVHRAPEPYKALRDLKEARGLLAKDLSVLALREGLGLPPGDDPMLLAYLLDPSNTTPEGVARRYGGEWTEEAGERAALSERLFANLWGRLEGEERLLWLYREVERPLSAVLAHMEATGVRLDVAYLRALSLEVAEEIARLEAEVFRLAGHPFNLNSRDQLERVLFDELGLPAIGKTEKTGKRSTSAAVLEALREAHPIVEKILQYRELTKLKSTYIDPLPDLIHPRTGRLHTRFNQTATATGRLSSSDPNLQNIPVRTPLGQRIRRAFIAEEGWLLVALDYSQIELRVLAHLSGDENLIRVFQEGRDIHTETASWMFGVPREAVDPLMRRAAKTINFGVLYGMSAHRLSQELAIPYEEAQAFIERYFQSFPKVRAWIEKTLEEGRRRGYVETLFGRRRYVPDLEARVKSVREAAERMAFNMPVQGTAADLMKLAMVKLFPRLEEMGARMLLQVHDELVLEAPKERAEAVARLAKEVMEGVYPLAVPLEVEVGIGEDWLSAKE

[8] = system: HeLa cells; assay: XR-seq of EdU excision products; assay type: cell-based, human; conditions: for TS/NTS ratio genome-wide: RNA Pol II transcribed genes
[9] = system: an osteosarcoma and a glioblastoma cell line; conditions: cited from earlier work
[10] = system: primary human glioblastoma cell; conditions: same dose as Temozolomide; cited from earlier work
[11] = compared with other thymidine analogs used to study replication; cited from earlier work
[12] = in vivo; cited from earlier work
[13] = HeLa cells, 10 μM thymidine analog, 24 h

O=c1[nH]c(=O)n([C@H]2C[C@H](O)[C@@H](CO)O2)cc1I [IdU, 5-Iodo-2′-deoxyuridine]
excised oligomers (nominal 26-mer) precipitated by anti-BrdU antibodies [1]: not | substrate for excision repair [2]: not to be substrates for excision repair | incorporation into replicating HeLa cells [3]: similarly incorporated

O=c1[nH]c(=O)n([C@H]2C[C@H](O)[C@@H](CO)O2)cc1Cl [CldU, 5-Chloro-2′-deoxyuridine]
excised oligomers (nominal 26-mer) precipitated by anti-BrdU antibodies [1]: not | substrate for excision repair [2]: not to be substrates for excision repair | incorporation into replicating HeLa cells [3]: similarly incorporated

O=c1[nH]c(=O)n([C@H]2C[C@H](O)[C@@H](CO)O2)cc1Br [BrdU, 5-Bromo-2′-deoxyuridine]
excised oligomers (nominal 26-mer) precipitated by anti-BrdU antibodies [1]: not | substrate for excision repair [2]: not to be substrates for excision repair | incorporation into replicating HeLa cells [3]: similarly incorporated

C#Cc1cn([C@H]2C[C@H](O)[C@@H](CO)O2)c(=O)[nH]c1=O [EdU, 5-Ethynyl-2′-deoxyuridine]
time of peak level of excised EdU-containing fragments ([1]; 10 μM EdU for 3 to 48 hrs): 24 h | length of excised oligonucleotides under yellow light and ordinary room light ([1]; 10 μM EdU, 24 hours, both light conditions): 22-30 nts | excised oligomers (nominal 26-mer) precipitated by anti-BrdU antibodies [1]: precipitated oligomers in the form of nominal 26-mer | time that EdU removal continues after pulse labeling ([1]; 4 hours EdU, then EdU-free medium, up to 12 hrs): at least 12 hrs | length of excision products isolated with anti-TFIIH antibodies [2, 13]: 25-32 nucleotide | substrate for excision repair [2]: substrate for excision repair | excision product [4]: excision product seen | excision product [5]: no excision product | incorporation into replicating HeLa cells [3]: similarly incorporated | in vitro excision (percentage of excision relative to total amount of substrate) [6]: efficient substrate for the mammalian excision nucleases | PCR product from EdU-substituted genomic DNA template [7]: produced full-size fragments | XR-seq reads over active promoter, weak promoter, strong enhancer and transcription transition region ([8]; 15 ChromHMM chromatin states, 6 h to 48 h): relatively high | TS/NTS ratio genome-wide ([8]; 6 h EdU treatment): ~2.5 | TS/NTS ratio genome-wide ([8]; 48 h EdU treatment): ~1.2 | time at which TS/NTS repair ratio peaks ([8]; HACD3, DHFR, and MSH3 genes): 6 h | peak of length distribution of excision products ([8]; anti-TFIIH IP, XR-seq): 25-27 nucleotides | repair of EdU at DNase hypersensitivity peaks ([8]; gene and intergenic regions): significantly enriched | suppressing cell proliferation compared with BrdU [9]: outperform BrdU | apoptosis relative to Temozolomide [10]: 3-5 fold | strand breaks relative to Temozolomide [10]: 3-5 fold | toxicity [11]: highly toxic | crossing of the blood-brain-barrier [12]: crosses the blood-brain-barrier

[N-]=[N+]=NCc1cn([C@H]2C[C@H](O)[C@@H](CO)O2)c(=O)[nH]c1=O [AmdU, 5-(azidomethyl)-2′-deoxyuridine]
excised by human nucleotide excision repair (TFIIH IP) [2, 13]: only EdU is excised | substrate for excision repair [2]: not to be substrates for excision repair

C#Cc1cn([C@@H]2O[C@H](CO)[C@@H](O)[C@@H]2F)c(=O)[nH]c1=O [F-ara-EdU, (2′S)-2-Deoxy-2-fluoro-5-ethynyluridine]
excised by human nucleotide excision repair (TFIIH IP) [2, 13]: only EdU is excised | substrate for excision repair [2]: not to be substrates for excision repair
